The text below walks through data of the RepoRT retention time repository (doi:10.1021/acs.analchem.1c00972).

The structures appear in SMILES notation.

This data set is described as follows: RP, Waters ACQUITY UPLC BEH C18, 100 × 1 mm, 1.7 µm, 50 °C, 0.3 mL/min, estimated dead time 0.17 min; A: water + 0.1% formic acid + 20 mM ammonium formate; B: methanol + 0.1% formic acid + 20 mM ammonium formate; gradient (min/%B) 0/0 15/100 21/100 22/0 30/0. Particulars: stereoisomer not certain.

Turning to `CC(=O)OC1C(=O)C2(C)C(O)CC3OCC3(OC(C)=O)C2C(OC(=O)c2ccccc2)C2(O)CC(OC(=O)C(O)C(NC(=O)c3ccccc3)c3ccccc3)C(C)=C1C2(C)C` (centres undefined) [Taxol], the LC retention time was 15 min.

Turning to `Cc1cc(C(F)(C(F)(F)F)C(F)(F)F)ccc1NC(=O)c1cccc(I)c1C(=O)NC(C)(C)CS(C)(=O)=O` [Flubendiamide], the LC retention time is 15.4 min.

In the case of `O=[N+]([O-])Nc1nccn1Cc1ccc(Cl)nc1` [Imidacloprid-olefin], the LC retention time is 7.92 min. Next, `c1ccc2c(c1)Nc1ccccc1S2` [Phenothiazine]: 14.9 min; `CC1CN(C2CCCCCCCCCCC2)CC(C)O1` (centres undefined) [Dodemorph]: 13.5 min; `CCc1cc(C)cc(CC)c1-c1c(OC(=O)C(C)(C)C)n2n(c1=O)CCOCC2` [Pinoxaden]: 10.5 min.

On to `Cc1cn(C2CC(N=[N+]=[N-])C(CO)O2)c(=O)[nH]c1=O` (centres undefined) [Zidovudine], for which the LC retention time was 8.04 min. For `Nc1ccc(C=Cc2ccc(N)cc2S(=O)(=O)O)c(S(=O)(=O)O)c1` [4,4'-Diaminostilbene-2,2'-disulfonic acid] the value was 9.71 min; for `CN(C)c1ccccc1` [N,N-Dimethylaniline], 2.5 min. In the case of `O=C(O)c1cccc(C(=O)O)c1` [Isophthalic acid], the LC retention time is 8.71 min. Next, `C=CC12CN(C)C3C4COC(CC41)C1(C(=O)Nc4ccccc41)C32` (centres undefined) [Gelsemine]: 7.38 min. For `CC1=C(C(=O)Nc2ccccc2)CCCO1` [Pyracarbolid] the value was 11.7 min. For `CCCCCCOC(=O)c1ccccc1C(=O)OCCCCCC` [Dihexylphthalate] the value was 18.2 min; for `c1ccc2[nH]ncc2c1` [Indazole], 4.3 min; for `CCCCC(CC)COC(=O)C=Cc1ccc(OC)cc1` (centres undefined) [Octyl-methoxycinnamate], 18.2 min. In the case of `CNC(=O)N(C)c1nnc(C(F)(F)F)s1` [Thiazafluron], the LC retention time is 11.8 min. For `CCC=Nc1c([N+](=O)[O-])cc(C)c(C)c1[N+](=O)[O-]` [Pendimethalin-desethyl] the value was 8.48 min; for `NC(Cc1cnc[nH]1)C(=O)N1CCCC1C(=O)O` (centres undefined) [His-Pro], 2.6 min; for `CCOP(=S)(NC(C)C)Oc1ccccc1C(=O)OC(C)C` (centres undefined) [Isofenphos (-ethyl)], 16 min. For `CC(C)OC(=O)NC(C(=O)NC(C)c1nc2ccc(F)cc2s1)C(C)C` (centres undefined) [Benthiavalicarb-Isopropyl], the LC retention time was 14.5 min.

Consider `O=C(O)Cc1c(Cl)ccc(Cl)c1Cl` [Chlorfenac], for which the LC retention time is 2.02 min. Next, `O=P1(N(CCCl)CCCl)NCCCO1` (centres undefined) [Cyclophosphamide]: 10.7 min; `CCOC(=O)C1(c2ccccc2)CCC=CC1N(C)C` (centres undefined) [Tilidine]: 9.57 min; `CC12CCC(=O)C=C1CCC1C2CCC2(C)C(OC3OC(C(=O)O)C(O)C(O)C3O)CCC12` (centres undefined) [testosterone_glucuronide]: 13.6 min. Next, `CCNP(=S)(OC)OC(C)=CC(=O)OC(C)C` (centres undefined) [Propetamphos]: 14.6 min. As to `O=c1c(O)c(-c2ccc(O)c(O)c2)oc2cc(O)cc(O)c12` [Quercetin], the LC retention time was 11.4 min. Consider `CC1=C(C(=O)Nc2ccccc2)SCCO1` [Carboxin], for which the LC retention time was 11.9 min. In the case of `Cn1sccc1=O` [2-Methyl-4-isothiazolin-3-one], the LC retention time is 3.3 min. Next, `CC(C)NC(=O)NC(C)C` [1.3-Diisopropylurea]: 8.54 min. With `CCOc1cc(Oc2ccc(C(F)(F)F)cc2Cl)ccc1[N+](=O)[O-]` [Oxyfluorfen], the LC retention time is 16.8 min. Regarding `CC1CC(O)C2(O)C13CC(OC(=O)C3O)C(C)(O)C21COC1=O` (centres undefined) [Anisatin], the LC retention time is 7.91 min. Next, `CNC(C)C(O)c1ccccc1` (centres undefined) [ephedrine]: 7.4 min; `O=C1C(Cl)C(CCl)CN1c1cccc(C(F)(F)F)c1` (centres undefined) [Flurochloridone]: 14.6 min; `OC(c1ccc(Cl)cc1)(c1cncnc1)c1ccccc1Cl` (centres undefined) [Fenarimol]: 14.9 min.

For `CCOP(=O)(O)OCC` [Diethyl phopshate], the LC retention time is 16.3 min.

Take `O=C1CCC2(O)C3Cc4ccc(O)c5c4C2(CCN3CC2CC2)C1O5` (centres undefined) [Naltrexon]: the LC retention time is 5.88 min. For `CC(=O)OCC(=O)C12OC(C)(C)OC1CC1C3CC(F)C4=CC(=O)C=CC4(C)C3(F)C(O)CC12C` (centres undefined) [Fluocinonide] the value was 14.6 min; for `CC=C(C)C(=O)OC1CC[N+]2([O-])CC=C(COC(=O)C(O)(C(C)O)C(C)(C)O)C12` (centres undefined) [Echimidine N-oxide], 9.37 min.

For the compound `CCCCCCCCSCCOCCOCCOCCO` [3,6,9-Trioxa-12-thia-eicosanol], the LC retention time is 18.3 min. With `C[N+](C)(C)C` [Tetramethylammonium cation], the LC retention time is 2 min.

As for `Cc1ccccc1O` [2-Methylphenol], the LC retention time is 14.3 min.

For `Nc1ccc2nc3c(N)cccc3nc2c1` [1,7-Diaminophenazine], the LC retention time was 8.24 min. `Nc1nc2c(ncn2CCC(CO)CO)c(=O)[nH]1` [Penciclovir]: the LC retention time is 3.58 min. For `O=c1ccc(=O)[nH][nH]1` [Maleic acid hydazide] the value was 16.4 min. For `CC(C)OC(=O)Nc1cccc(Cl)c1` [Chlorpropham] the value was 14.4 min; for `NS(=O)(=O)c1ccc(-n2nc(C(F)(F)F)cc2-c2ccc(C(=O)O)cc2)cc1` [Celecoxib Carboxylic Acid], 13.6 min; for `Cc1ccc(O)cc1` [4-Methylphenol], 14.3 min.

Regarding `O=C(O)c1ccc2ncsc2c1` [Benzothiazole-6-carbons<e4>ure], the LC retention time was 9.32 min. Next, `O=P(O)(O)CCCl` [Ethephon]: 2.01 min; `CNC(=O)ON=C(CSC)C(C)(C)C` [Thiofanox]: 11.7 min. For `CCNC(=O)NC(=O)C(C#N)=NOC` [Cymoxanil] the value was 9.68 min.

Consider `O=[N+]([O-])c1ccc(C2OC2c2ccc([N+](=O)[O-])cc2S(=O)(=O)O)c(S(=O)(=O)O)c1` (centres undefined), for which the LC retention time was 11.5 min. Next, `CCCCCCCCCC(=O)OC(CC(=O)[O-])C[N+](C)(C)C` [Decanoyl-L-Carnitine]: 14.5 min; `O=C(O)Cc1c[nH]c2ccc(O)cc12` [5-Hydroxyindole-3-acetic acid]: 6.7 min; `CC(C)Nc1nc(N)[nH]c(=O)n1` [Atrazin-desethyl-2-hydroxy]: 4.31 min. Next, `Cc1ccc(N)cc1Cl` [3-Chloro-4-methylaniline]: 10.1 min. Next, `CC(=O)N1N=C(c2ccc(N)cc2)c2cc3c(cc2CC1C)OCO3` (centres undefined) [Talampanel]: 11.5 min; `COc1ccc2c3c1OC1C(O)CCC4C(C2)N(C)CCC341` (centres undefined) [Dihydrocodein]: 6.74 min. Take `O=C1CCCC=CCCCCCCCCCC1` [Velvione]: the LC retention time was 18.1 min. For `CCCCCCCCn1sc(Cl)c(Cl)c1=O` [DCOIT] the value was 17 min; for `CCOP(=S)(OCC)Oc1cnc2ccccc2n1` [Quinalophos], 15.3 min. Next, `COC(=O)c1ccc(CNS(C)(=O)=O)cc1S(=O)(=O)NC(=O)Nc1nc(OC)cc(OC)n1` [Mesosulfuron-methyl]: 12.8 min; `CCC(C(=O)O)C1CCC(C)C(C(C)C(O)C(C)C(=O)C(CC)C2OC3(C=CC(O)C4(CCC(C)(C5CCC(O)(CC)C(C)O5)O4)O3)C(C)CC2C)O1` (centres undefined) [Salinomycin]: 18.4 min. Next, `CC(=O)c1ccc2ccccc2c1` [2-Acetonaphthone]: 13.5 min. For `CCCCCCCCC=CCCCCCCCCCCCC(N)=O` [Erucamide], the LC retention time is 19.6 min. Next, `Nc1ccc(Cl)cc1Cl` [2,4-Dichloroaniline]: 17.6 min; `O=C(O)c1cc(=O)c2cccc(O)c2[nH]1` [Xanthurenic acid]: 6.8 min; `O=C(O)c1cc(=O)c2ccccc2[nH]1` [Kynurenic acid]: 6.9 min. For `OCCc1cccc(O)c1` [2-(3-Hydroxyphenyl)ethanol] the value was 2.8 min; for `CNC(=O)ON=C(SC)C(=O)N(C)C` [Oxamyl], 7.21 min. Take `O=C(O)/C=C/c1cccc(O)c1` [trans-3-Hydroxycinnamic acid]: the LC retention time was 7.5 min. Next, `CC(C)CC(C)OC(=O)c1ccccc1C(=O)OC(C)CC(C)C` (centres undefined) [Bis(4-methyl-2-pentanyl)phthalate]: 18.2 min; `O=P(OCC(Cl)CCl)(OCC(Cl)CCl)OCC(Cl)CCl` (centres undefined) [Tris(2,3-dichloropropyl) phosphate]: 15.6 min. For `CCCCCCCCCCCCCCCC(=O)OCC(O)CO` (centres undefined) [Glyceryl-1-monopalmitate] the value was 18.6 min. For `COC(=O)C(C)=COP(=S)(OC)OC` [Methacrifos] the value was 12.1 min; for `CCCCC(O)(Cn1cncn1)c1ccc(Cl)cc1Cl` (centres undefined) [Hexaconazole], 15.9 min; for `CCCCC(CC)COP(=O)(OCC(CC)CCCC)OCC(CC)CCCC` (centres undefined) [Tris(2-Ethylhexyl) phosphate], 19.9 min. For `O=C(O)c1ccc2ccccc2n1` [Quinaldic acid], the LC retention time is 7.3 min. For `Cc1ccc(N=CN(C)C=Nc2ccc(C)cc2C)c(C)c1` [Amitraz] the value was 17.7 min.
